Data taken from patent US9527869B2, “Indolizine derivatives as phoshoinositide 3-kinases inhibitors” (CHIESI FARMACEUTICI S.P.A., priority 2014, dated 2016).

Experiments:
Format in all cases: biochemical
PI3Kβ = molecular target: T1, PI3Kβ (Homo sapiens, UniProt P42338); experiment: In vitro determination of the PI3K enzyme inhibitory activity in the cell free assay (ADP-Glo Kinase Assay), PI3Kβ; details: ATP 100 μM, read-out: PI3K beta inhibition
T1 construct: purchased Millipore Ltd (Billerica, Mass.)
Protocol: (§1) In vitro Determination of the PI3K Enzyme Inhibitory Activity in the Cell Free Assay
(§2) Human recombinant proteins PI3Kα, PI3Kβ, PI3Kγ and PI3Kδ were purchased from Millipore Ltd (Billerica, Mass.). Compounds were dissolved at 0.5 mM in DMSO and were tested at different concentrations for their activity against PI3Ks using the ADP-Glo™ Kinase Assay (Promega, Madison Wis.) according to the manufacturer's instructions.
(§3) Briefly, the kinase reactions were performed in 384-well white plates (Greiner Bio-One GmbH, Frickenhausen). Each well was loaded with 0.1 μl of test compounds and 2.5 μl of 2× reaction buffer (40 mM Tris pH7.5, 0.5 mM EGTA, 0.5 mM Na3VO4, 5 mM β-glycerophosphate, 0.1 mg/ml BSA, 1 mM DTT), containing 50 μM PI and PS substrates (L-α-phosphatidylinositol sodium salt and L-α-phosphatidyl-L-serine, Sigma-Aldrich, St. Louis Mo.) and the PI3K recombinant proteins (PI3Kγ 0.25 ng/μl, PI3Kδ 1 ng/μl, PI3Kα 0.125 ng/μl, PI3Kβ 1 ng/μl).
(§4) The reactions were started by adding 2.5 μl of 2×ATP solution to each well (final concentrations: PI3Kγ ATP 30 μM; PI3Kδ ATP 80 μM; PI3KαATP 50 μM; PI3Kβ ATP 100 μM) and incubated for 60 min at room temperature. Subsequently, each kinase reaction was incubated for 40 min with 5 μl ADP-Glo™ Reagent, allowing depletion of unconsumed ATP. Then, the Kinase Detection Reagent (10 μl) was added in each well to convert ADP to ATP and to allow the newly synthesized ATP to be measured using a luciferase/luciferin reaction. Following 60 min incubation, the luminescence signal was measured using a Wallac EnVision® multilabel reader (PerkinElmer, Waltham Mass.).
(§5) Curve fitting and IC50 calculation were carried out using a four-parameter logistic model in XLfit (IDBS, Guilford, UK) for Microsoft Excel (Microsoft, Redmont, Wash.).

PI3Kγ = molecular target: T2, PI3Kγ (Homo sapiens, UniProt P48736); experiment: In vitro determination of the PI3K enzyme inhibitory activity in the cell free assay (ADP-Glo Kinase Assay), PI3Kγ; details: ATP 30 μM, read-out: PI3K gamma inhibition
T2 construct: purchased Millipore Ltd (Billerica, Mass.)
Protocol: as §1, §2, §3, §4, §5

PI3Kα = molecular target: T3, PI3Kα (Homo sapiens, UniProt P42336); experiment: In vitro determination of the PI3K enzyme inhibitory activity in the cell free assay (ADP-Glo Kinase Assay), PI3Kα; details: ATP 50 μM, read-out: PI3K alpha inhibition
T3 construct: purchased Millipore Ltd (Billerica, Mass.)
Protocol: as §1, §2, §3, §4, §5

PI3Kδ = molecular target: T4, PI3Kδ (Homo sapiens, UniProt O00329); experiment: In vitro determination of the PI3K enzyme inhibitory activity in the cell free assay (ADP-Glo Kinase Assay), PI3Kδ; details: ATP 80 μM, read-out: PI3K delta inhibition
T4 construct: purchased Millipore Ltd (Billerica, Mass.)
Protocol: as §1, §2, §3, §4, §5

T3 sequence (P42336 whole entry): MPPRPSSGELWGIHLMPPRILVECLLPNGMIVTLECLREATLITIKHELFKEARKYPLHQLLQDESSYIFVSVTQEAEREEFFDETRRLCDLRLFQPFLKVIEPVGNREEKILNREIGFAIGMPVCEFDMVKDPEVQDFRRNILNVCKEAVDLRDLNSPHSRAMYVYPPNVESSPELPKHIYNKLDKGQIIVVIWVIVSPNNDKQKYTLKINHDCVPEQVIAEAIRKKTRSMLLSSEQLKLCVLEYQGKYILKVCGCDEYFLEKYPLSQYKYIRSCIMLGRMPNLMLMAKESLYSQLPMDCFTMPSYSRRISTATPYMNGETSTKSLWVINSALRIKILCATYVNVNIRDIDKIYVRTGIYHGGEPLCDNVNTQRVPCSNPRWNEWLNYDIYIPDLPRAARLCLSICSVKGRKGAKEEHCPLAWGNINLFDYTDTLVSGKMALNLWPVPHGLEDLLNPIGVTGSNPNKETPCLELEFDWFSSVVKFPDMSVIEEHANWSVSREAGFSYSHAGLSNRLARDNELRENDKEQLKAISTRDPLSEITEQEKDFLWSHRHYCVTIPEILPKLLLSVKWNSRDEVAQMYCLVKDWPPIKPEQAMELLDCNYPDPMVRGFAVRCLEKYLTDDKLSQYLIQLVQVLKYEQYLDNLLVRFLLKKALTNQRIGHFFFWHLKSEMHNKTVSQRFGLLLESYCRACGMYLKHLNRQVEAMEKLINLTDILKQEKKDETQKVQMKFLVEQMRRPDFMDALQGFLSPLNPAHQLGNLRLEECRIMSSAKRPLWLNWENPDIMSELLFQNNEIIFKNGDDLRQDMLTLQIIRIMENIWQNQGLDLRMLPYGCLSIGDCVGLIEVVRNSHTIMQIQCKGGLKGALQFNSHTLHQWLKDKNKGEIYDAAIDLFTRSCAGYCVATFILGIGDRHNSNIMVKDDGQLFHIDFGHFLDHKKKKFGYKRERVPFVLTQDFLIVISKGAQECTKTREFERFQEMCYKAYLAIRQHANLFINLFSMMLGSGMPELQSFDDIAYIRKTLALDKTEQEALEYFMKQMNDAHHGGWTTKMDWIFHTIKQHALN
T3 sequence (P27986 whole entry partner): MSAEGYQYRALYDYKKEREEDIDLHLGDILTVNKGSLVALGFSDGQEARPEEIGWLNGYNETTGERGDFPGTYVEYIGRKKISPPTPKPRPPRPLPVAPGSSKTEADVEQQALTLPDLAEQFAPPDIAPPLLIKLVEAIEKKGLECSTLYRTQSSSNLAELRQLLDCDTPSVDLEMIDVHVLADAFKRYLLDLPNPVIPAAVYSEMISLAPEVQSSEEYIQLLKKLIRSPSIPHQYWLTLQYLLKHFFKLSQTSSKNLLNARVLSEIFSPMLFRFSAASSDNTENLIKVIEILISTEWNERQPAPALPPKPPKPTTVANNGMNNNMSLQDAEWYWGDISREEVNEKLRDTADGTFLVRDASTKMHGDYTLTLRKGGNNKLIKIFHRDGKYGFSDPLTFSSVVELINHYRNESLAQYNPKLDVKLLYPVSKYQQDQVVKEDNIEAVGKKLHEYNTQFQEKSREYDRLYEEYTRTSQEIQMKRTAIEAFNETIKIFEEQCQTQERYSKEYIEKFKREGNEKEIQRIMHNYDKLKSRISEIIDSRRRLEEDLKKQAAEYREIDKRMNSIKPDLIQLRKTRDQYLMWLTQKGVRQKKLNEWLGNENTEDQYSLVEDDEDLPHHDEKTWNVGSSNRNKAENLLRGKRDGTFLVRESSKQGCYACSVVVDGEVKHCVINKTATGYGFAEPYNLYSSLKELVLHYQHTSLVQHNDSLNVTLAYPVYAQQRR
T4 sequence (O00329 whole entry): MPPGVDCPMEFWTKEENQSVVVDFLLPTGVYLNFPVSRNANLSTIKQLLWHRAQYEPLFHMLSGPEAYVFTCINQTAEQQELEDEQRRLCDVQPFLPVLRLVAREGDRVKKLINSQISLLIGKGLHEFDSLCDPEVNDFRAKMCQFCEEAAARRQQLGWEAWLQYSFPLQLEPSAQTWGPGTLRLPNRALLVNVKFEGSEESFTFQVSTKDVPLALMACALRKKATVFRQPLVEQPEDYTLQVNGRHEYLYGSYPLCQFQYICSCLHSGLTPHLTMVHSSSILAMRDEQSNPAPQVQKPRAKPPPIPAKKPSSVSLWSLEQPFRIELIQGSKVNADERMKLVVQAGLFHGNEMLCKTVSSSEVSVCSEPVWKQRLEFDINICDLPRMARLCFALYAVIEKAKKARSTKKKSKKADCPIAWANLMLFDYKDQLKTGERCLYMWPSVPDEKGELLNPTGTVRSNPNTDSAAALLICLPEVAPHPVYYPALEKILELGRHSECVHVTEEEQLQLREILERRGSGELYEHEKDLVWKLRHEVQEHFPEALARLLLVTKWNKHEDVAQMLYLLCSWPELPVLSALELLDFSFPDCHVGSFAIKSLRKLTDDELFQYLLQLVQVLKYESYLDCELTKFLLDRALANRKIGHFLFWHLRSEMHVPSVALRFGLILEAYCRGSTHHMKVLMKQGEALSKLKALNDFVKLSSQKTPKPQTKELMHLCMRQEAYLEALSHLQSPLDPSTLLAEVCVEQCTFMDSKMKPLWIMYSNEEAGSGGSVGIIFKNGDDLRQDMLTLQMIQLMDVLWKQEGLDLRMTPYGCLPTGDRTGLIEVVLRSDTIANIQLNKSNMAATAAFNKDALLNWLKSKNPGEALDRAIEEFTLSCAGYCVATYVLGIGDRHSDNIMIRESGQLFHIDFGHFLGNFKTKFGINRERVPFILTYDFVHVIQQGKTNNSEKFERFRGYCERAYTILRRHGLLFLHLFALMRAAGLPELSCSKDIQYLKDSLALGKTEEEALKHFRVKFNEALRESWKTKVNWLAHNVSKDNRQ
T4 sequence (P27986 whole entry partner): as the sequence (P27986 whole entry partner) above
T1 sequence (P42338 whole entry): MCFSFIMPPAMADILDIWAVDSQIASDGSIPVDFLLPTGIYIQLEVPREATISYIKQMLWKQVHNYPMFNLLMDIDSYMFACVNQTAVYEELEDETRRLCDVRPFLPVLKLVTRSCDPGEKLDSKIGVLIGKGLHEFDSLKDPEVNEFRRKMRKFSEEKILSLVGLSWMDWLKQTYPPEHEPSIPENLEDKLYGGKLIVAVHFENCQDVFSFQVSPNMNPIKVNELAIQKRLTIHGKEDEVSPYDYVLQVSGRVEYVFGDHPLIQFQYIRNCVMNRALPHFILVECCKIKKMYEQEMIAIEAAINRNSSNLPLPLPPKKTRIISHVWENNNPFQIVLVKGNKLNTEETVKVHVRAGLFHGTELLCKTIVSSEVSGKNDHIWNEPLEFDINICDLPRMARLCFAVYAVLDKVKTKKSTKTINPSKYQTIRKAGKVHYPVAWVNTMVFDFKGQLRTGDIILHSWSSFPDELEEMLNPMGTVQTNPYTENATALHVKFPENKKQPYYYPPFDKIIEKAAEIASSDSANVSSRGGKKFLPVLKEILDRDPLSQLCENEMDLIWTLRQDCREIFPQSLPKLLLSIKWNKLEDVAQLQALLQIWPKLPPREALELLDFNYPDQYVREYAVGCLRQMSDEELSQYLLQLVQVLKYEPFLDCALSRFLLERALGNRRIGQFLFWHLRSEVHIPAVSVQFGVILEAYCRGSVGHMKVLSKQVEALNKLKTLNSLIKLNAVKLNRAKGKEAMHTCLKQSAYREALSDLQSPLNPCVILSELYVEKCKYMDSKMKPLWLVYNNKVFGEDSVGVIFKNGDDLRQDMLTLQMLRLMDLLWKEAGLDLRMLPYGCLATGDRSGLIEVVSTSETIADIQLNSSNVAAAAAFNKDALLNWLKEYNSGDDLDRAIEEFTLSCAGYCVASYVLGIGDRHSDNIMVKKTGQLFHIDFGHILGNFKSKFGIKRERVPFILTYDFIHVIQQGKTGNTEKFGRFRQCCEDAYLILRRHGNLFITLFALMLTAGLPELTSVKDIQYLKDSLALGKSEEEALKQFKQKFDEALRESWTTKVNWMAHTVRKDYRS
T1 sequence (P27986 whole entry partner): as the sequence (P27986 whole entry partner) above
T2 sequence (P48736 whole entry): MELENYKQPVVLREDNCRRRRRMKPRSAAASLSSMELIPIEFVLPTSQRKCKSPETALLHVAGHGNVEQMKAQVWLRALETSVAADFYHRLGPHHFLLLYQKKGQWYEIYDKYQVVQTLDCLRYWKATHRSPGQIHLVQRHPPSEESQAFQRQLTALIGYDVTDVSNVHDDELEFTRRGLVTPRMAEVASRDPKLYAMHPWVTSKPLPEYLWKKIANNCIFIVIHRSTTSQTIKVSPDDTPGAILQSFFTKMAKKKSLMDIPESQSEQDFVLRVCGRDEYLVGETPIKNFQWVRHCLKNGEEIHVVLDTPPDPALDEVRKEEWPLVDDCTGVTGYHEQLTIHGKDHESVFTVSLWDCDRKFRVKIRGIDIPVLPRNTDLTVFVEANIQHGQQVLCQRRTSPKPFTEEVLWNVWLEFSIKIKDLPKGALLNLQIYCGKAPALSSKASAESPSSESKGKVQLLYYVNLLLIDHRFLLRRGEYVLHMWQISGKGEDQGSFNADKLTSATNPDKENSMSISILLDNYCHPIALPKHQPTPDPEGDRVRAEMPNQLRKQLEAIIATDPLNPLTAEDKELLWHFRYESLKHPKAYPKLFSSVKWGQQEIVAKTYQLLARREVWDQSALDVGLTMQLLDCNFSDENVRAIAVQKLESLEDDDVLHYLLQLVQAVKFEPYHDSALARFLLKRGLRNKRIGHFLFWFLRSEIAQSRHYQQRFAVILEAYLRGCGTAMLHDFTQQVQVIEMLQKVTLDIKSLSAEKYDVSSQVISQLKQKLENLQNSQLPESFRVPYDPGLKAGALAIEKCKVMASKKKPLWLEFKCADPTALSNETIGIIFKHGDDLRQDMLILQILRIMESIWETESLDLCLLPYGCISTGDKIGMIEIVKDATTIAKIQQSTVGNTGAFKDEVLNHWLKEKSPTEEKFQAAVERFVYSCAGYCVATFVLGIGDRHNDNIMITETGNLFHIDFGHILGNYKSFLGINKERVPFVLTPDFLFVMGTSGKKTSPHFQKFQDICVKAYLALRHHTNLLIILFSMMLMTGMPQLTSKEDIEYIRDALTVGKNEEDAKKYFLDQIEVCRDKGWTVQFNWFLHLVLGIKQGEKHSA

| Compound | IC50 (PI3Kβ) | IC50 (PI3Kγ) | IC50 (PI3Kα) | IC50 (PI3Kδ) |
| --- | --- | --- | --- | --- |
| Nc1ncnc2c1ncn2Cc1cc2ccccn2c1 [Example 9, 9-(indolizin-2-ylmethyl)-9H-purin-6-amine] | > 1 µM | > 1 µM | > 1 µM | > 1 µM |
| Nc1ncnc2c1ncn2Cc1cn2ccccc2c1-c1ccccc1 [Example 10, 9-[(1-phenylindolizin-2-yl)methyl]-9H-purin-6-amine] | > 1 µM | > 1 µM | > 1 µM | > 1 µM |
| Nc1ncnc2c1ncn2Cc1cn2ccccc2c1-c1cccc(F)c1 [Example 11, 9-{[1-(3-fluorophenyl)indolizin-2-yl]methyl}-9H-purin-6-amine] | > 1 µM | > 1 µM | > 1 µM | > 1 µM |
| Cc1ccccc1-c1c(Cn2cnc3c(N)ncnc32)cn2ccccc12 [Example 12, 9-{[1-(2-methylphenyl)indolizin-2-yl]methyl}-9H-purin-6-amine] | > 1 µM | > 1 µM | > 1 µM | > 1 µM |
| c1ccc(-c2c(CNc3ncnc4[nH]cnc34)cc3ccccn23)cc1 [Example 13, N-[(3-phenylindolizin-2-yl)methyl]-9H-purin-6-amine] | > 1 µM | > 1 µM | > 1 µM | > 1 µM |
| c1ccc(-c2c(CNc3ncnc4[nH]cnc34)cc3ccccn23)nc1 [Example 14, N-{[3-(pyridin-2-yl)indolizin-2-yl]methyl}-9H-purin-6-amine] | > 1 µM | > 1 µM | > 1 µM | > 1 µM |
| Fc1cccc(-c2c(CNc3ncnc4[nH]cnc34)cc3ccccn23)c1 [Example 15, N-{[3-(3-fluorophenyl)indolizin-2-yl]methyl}-9H-purin-6-amine] | > 1 µM | > 1 µM | > 1 µM | > 1 µM |
| Fc1ccccc1-c1c(CNc2ncnc3[nH]cnc23)cc2ccccn12 [Example 16, N-{[3-(2-fluorophenyl)indolizin-2-yl]methyl}-9H-purin-6-amine] | > 1 µM | > 1 µM | > 1 µM | > 1 µM |
| c1ccc(-c2c(CNc3ncnc4[nH]cnc34)cn3ccccc23)cc1 [Example 17, N-[(1-phenylindolizin-2-yl)methyl]-9H-purin-6-amine] | > 1 µM | > 1 µM | > 1 µM | > 1 µM |
| Fc1cccc(-c2c(CNc3ncnc4[nH]cnc34)cn3ccccc23)c1 [Example 18, N-{[1-(3-fluorophenyl)indolizin-2-yl]methyl}-9H-purin-6-amine] | > 1 µM | > 1 µM | > 1 µM | 0.01 to 1 µM |
| Cc1ccccc1-c1c(CNc2ncnc3[nH]cnc23)cn2ccccc12 [Example 19, N-{[1-(2-methylphenyl)indolizin-2-yl]methyl}-9H-purin-6-amine] | > 1 µM | > 1 µM | > 1 µM | > 1 µM |
| c1ccc(-c2c(CNc3ncnc4[nH]cnc34)cn3ccccc23)nc1 [Example 20, N-{[1-(pyridin-2-yl)indolizin-2-yl]methyl}-9H-purin-6-amine] | > 1 µM | > 1 µM | > 1 µM | 0.01 to 1 µM |
| c1ccn2cc(CNc3ncnc4[nH]cnc34)cc2c1 [Example 21, N-(indolizin-2-ylmethyl)-9H-purin-6-amine] | 0.01 to 1 µM | > 1 µM | > 1 µM | 0.01 to 1 µM |
| N#Cc1c(N)ncnc1NCc1cc2ccccn2c1-c1ccccc1 [Example 22, 4-amino-6-{[(3-phenylindolizin-2-yl)methyl]amino}pyrimidine-5-carbonitrile] | > 1 µM | > 1 µM | > 1 µM | 0.01 to 1 µM |
| N#Cc1c(N)ncnc1NCc1cc2ccccn2c1-c1ccccn1 [Example 23, 4-amino-6-({[3-(pyridin-2-yl)indolizin-2-yl]methyl}amino)pyrimidine-5-carbonitrile] | > 1 µM | > 1 µM | > 1 µM | 0.01 to 1 µM |
| N#Cc1c(N)ncnc1NCc1cc2ccccn2c1-c1cccc(F)c1 [Example 24, 4-amino-6-({[3-(3-fluorophenyl)indolizin-2-yl]methyl}amino)pyrimidine-5-carbonitrile] | > 1 µM | > 1 µM | > 1 µM | 0.01 to 1 µM |
| N#Cc1c(N)ncnc1NCc1cc2ccccn2c1-c1ccccc1F [Example 25, 4-amino-6-({[3-(2-fluorophenyl)indolizin-2-yl]methyl}amino)pyrimidine-5-carbonitrile] | > 1 µM | > 1 µM | > 1 µM | 0.01 to 1 µM |
| Cc1ccccc1-c1c(CNc2ncnc(N)c2C#N)cc2ccccn12 [Example 26, 4-amino-6-({[3-(2-methylphenyl)indolizin-2-yl]methyl}amino)pyrimidine-5-carbonitrile] | > 1 µM | > 1 µM | > 1 µM | 0.01 to 1 µM |
| N#Cc1c(N)ncnc1NCc1cn2ccccc2c1-c1ccccc1 [Example 27, 4-amino-6-{[(1-phenylindolizin-2-yl)methyl]amino}pyrimidine-5-carbonitrile] | > 1 µM | > 1 µM | > 1 µM | > 1 µM |
| N#Cc1c(N)ncnc1NCc1cn2ccccc2c1-c1cccc(F)c1 [Example 28, 4-amino-6-({[1-(3-fluorophenyl)indolizin-2-yl]methyl}amino)pyrimidine-5-carbonitrile] | > 1 µM | > 1 µM | > 1 µM | 0.01 to 1 µM |
| Cc1ccccc1-c1c(CNc2ncnc(N)c2C#N)cn2ccccc12 [Example 29, 4-amino-6-({[1-(2-methylphenyl)indolizin-2-yl]methyl}amino)pyrimidine-5-carbonitrile] | > 1 µM | > 1 µM | > 1 µM | 0.01 to 1 µM |
| N#Cc1c(N)ncnc1NCc1cn2ccccc2c1-c1ccccn1 [Example 30, 4-amino-6-({[1-(pyridin-2-yl)indolizin-2-yl]methyl}amino)pyrimidine-5-carbonitrile] | > 1 µM | > 1 µM | > 1 µM | 0.01 to 1 µM |
| N#Cc1c(N)ncnc1NCc1cc2ccccn2c1 [Example 31, 4-amino-6-[(indolizin-2-ylmethyl)amino]pyrimidine-5-carbonitrile] | > 1 µM | > 1 µM | > 1 µM | 0.01 to 1 µM |
| CC(Nc1ncnc(N)c1C#N)c1cc2ccccn2c1-c1ccccc1 (centres unmarked) [Example 32, 4-amino-6-{[1-(3-phenylindolizin-2-yl)ethyl]amino}pyrimidine-5-carbonitrile] | > 1 µM | > 1 µM | > 1 µM | 0.01 to 1 µM |
| CC(Nc1ncnc(N)c1C#N)c1cc2ccccn2c1-c1ccccn1 (centres unmarked) [Example 33, 4-amino-6-({1-[3-(pyridin-2-yl)indolizin-2-yl]ethyl}amino)pyrimidine-5-carbonitrile] | 0.01 to 1 µM | > 1 µM | > 1 µM | 0.01 to 1 µM |
| CC(Nc1ncnc(N)c1C#N)c1cc2ccccn2c1-c1cccnc1 (centres unmarked) [Example 34, 4-amino-6-({1-[3-(pyridin-3-yl)indolizin-2-yl]ethyl}amino)pyrimidine-5-carbonitrile] | 0.01 to 1 µM | 0.01 to 1 µM | > 1 µM | 0.01 to 1 µM |
| CC(Nc1ncnc(N)c1C#N)c1cc2ccccn2c1-c1cnccn1 (centres unmarked) [Example 35, 4-amino-6-({1-[3-(pyrazin-2-yl)indolizin-2-yl]ethyl}amino)pyrimidine-5-carbonitrile] | 0.01 to 1 µM | > 1 µM | > 1 µM | 0.01 to 1 µM |
| CC(Nc1ncnc(N)c1C#N)c1cc2ccccn2c1-c1ccncc1 (centres unmarked) [Example 36, 4-amino-6-({1-[3-(pyridin-4-yl)indolizin-2-yl]ethyl}amino)pyrimidine-5-carbonitrile] | 0.01 to 1 µM | 0.01 to 1 µM | > 1 µM | 0.01 to 1 µM |
| CC(Nc1ncnc(N)c1C#N)c1cc2ccccn2c1-c1cccs1 (centres unmarked) [Example 37, 4-amino-6-({1-[3-(thiophen-2-yl)indolizin-2-yl]ethyl}amino)pyrimidine-5-carbonitrile] | > 1 µM | > 1 µM | > 1 µM | 0.01 to 1 µM |
